Assay results taken from ChEMBL document CHEMBL1201862, “PubChem BioAssay data set” (2004).
The source made the active and inactive calls.

Experiments:
[1] = biological target: T1, RNA-binding protein pos-1 (Caenorhabditis elegans, UniProt G5EF15); experiment: inhibitors of POS-1/mex-3 RNA binding, dose response, biochemical, fluorescence polarization (AID 1964);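 further: purified POS-1 fused to maltose binding protein made in E. coli; potency of compounds blocking POS-1 binding to fluorescent RNA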
T1 sequence (G5EF15 whole entry): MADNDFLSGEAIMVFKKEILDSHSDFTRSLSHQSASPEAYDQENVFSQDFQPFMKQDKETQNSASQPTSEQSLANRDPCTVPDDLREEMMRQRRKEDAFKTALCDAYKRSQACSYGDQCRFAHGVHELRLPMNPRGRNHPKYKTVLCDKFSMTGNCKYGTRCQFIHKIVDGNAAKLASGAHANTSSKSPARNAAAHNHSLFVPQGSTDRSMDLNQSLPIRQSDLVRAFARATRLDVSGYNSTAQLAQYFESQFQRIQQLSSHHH

[2] = biological target: T2, Zinc finger protein mex-5 (Caenorhabditis elegans, UniProt Q9XUB2); experiment: MEX-5/TCR-2 RNA interaction inhibitors, dose response, biochemical, C. elegans, fluorescence polarization (AID 1960)
T2 sequence (Q9XUB2 whole entry): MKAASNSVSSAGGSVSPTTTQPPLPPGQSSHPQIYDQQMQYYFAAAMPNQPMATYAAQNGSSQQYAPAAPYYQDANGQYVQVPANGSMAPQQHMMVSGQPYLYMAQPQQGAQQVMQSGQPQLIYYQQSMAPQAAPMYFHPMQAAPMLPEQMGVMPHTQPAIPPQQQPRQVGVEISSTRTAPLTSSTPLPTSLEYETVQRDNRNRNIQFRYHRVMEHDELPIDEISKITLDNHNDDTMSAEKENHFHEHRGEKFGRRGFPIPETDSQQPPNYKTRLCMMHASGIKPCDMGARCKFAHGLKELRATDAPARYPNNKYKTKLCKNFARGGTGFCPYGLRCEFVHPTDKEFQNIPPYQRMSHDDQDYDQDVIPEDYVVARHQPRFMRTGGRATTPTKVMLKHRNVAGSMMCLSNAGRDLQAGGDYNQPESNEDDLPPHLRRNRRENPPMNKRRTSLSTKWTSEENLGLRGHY

[3] = inhibitors of intracellular T. cruzi replication, confirmation, NIH3T3 host cells, beta-gal luminescence (AID 2044); assay type: functional, cell-based;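 further: intracellular parasites grown in NIH/3T3 mouse fibroblasts as host cells; luminescent beta-galactosidase reporter signal from transgenic T. cruzi replicating inside host cells; inhibitors lower the luminescence signal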
[4] = cytotoxicity toward NIH3T3 fibroblasts, dose response, counter-screen, cell-based, ATP luminescence, mouse fibroblasts (AID 2010); assay type: functional;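 further: cells exposed to compound for about 90 hours before reading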
[5] = biological target: T3, Heat shock factor protein 1 (Mus musculus, UniProt P38532); experiment: HSF1 potentiators in luciferase reporter cells, confirmation, cell-based, NIH3T3, luminescence, dose retest (AID 435004); assay type: functional;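 further: stress induced by proteasome inhibitor MG132 added 30 min after compound; luciferase reporter driven by HSF1 response element in NIH3T3 cells; actives raise luminescence as potentiators of the MG132 stress response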
T3 sequence (P38532 whole entry): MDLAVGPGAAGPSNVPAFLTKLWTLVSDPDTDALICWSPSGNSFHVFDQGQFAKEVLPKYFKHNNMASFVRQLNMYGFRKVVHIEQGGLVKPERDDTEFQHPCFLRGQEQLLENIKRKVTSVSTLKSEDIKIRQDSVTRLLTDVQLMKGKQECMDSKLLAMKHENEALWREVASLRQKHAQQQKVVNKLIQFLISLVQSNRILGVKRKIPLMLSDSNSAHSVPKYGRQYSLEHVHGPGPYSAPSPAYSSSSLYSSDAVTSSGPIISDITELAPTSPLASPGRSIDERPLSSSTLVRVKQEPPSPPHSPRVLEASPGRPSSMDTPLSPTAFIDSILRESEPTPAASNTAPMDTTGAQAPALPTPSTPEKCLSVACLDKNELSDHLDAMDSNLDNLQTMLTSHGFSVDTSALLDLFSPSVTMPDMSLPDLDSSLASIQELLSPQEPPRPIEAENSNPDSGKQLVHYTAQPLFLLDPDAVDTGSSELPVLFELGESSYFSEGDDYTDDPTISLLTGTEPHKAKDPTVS

[6] = Luminescence Cell-Based Dose Confirmation HTS to Identify Activators of 5'UTR Stem-Loop Driven Alpha-Synuclein mRNA Translation in H4 Neuroglioblastoma Cells. [Related pubchem assays: 1829 (Project Summary), 1814 (Primary HTS)]; assay type: functional
[7] = Luminescence Cell-Based Dose Response HTS to Identify Activators of Luciferase Translation or Activity in H4 […] Cells. [Related pubchem assays: 1829 (Project Summary), 1814 (Primary HTS)]; assay type: functional
H4 = experiment: Luminescence Cell-Based Dose Response HTS to Identify Activators of 5'UTR Stem-Loop Driven Prion Protein mRNA Translation in H4 Neuroglioblastoma Cells. [Related pubchem assays: 1829 (Project Summary), 1814 (Primary HTS)]; assay type: functional; conditions: Homo sapiens
[8] = biological target: T3, Heat shock factor protein 1; experiment: inhibition of MG132-induced HSE-luciferase signal, confirmation, cell-based, NIH3T3, luminescence, dose retest (AID 2382); assay type: functional;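 further: NIH3T3 fibroblasts with HSF1-driven luciferase reporter stressed by proteasome inhibitor MG132; luminescence from HSF1-driven luciferase expression after 8 hours of MG132 stress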
Large T antigen = Large T antigen (Simian virus 40, UniProt P03070); assay type: functional, Betapolyomavirus macacae;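 further: Confirmatory-stage PubChem screen for compounds that inhibit SV40 T antigen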
[9] = HEp-2 cell cytotoxicity, dose response, cytotoxicity control for RSV inhibitor project, HTS (AID 2410); assay type: functional; conditions: human respiratory syncytial virus
Cytochrome P450 2C19 = Cytochrome P450 2C19 (Homo sapiens, UniProt P33261); experiment: Cytochrome panel assay with activity outcomes. Panel member name: p450-cyp2c19 Compounds with AC50 equal or less than 10 uM are considered active; assay type: functional; conditions: read-out: AC50
[10] = biological target: T4, Rac GTPase-activating protein 1 (Homo sapiens, UniProt Q9H0H5); experiment: MgcRacGAP GTPase-activating activity inhibitors, confirmation, biochemical, ADP Hunter fluorescence, primary and confirmatory (AID 624330); assay type: functional
T4 sequence (Q9H0H5 whole entry): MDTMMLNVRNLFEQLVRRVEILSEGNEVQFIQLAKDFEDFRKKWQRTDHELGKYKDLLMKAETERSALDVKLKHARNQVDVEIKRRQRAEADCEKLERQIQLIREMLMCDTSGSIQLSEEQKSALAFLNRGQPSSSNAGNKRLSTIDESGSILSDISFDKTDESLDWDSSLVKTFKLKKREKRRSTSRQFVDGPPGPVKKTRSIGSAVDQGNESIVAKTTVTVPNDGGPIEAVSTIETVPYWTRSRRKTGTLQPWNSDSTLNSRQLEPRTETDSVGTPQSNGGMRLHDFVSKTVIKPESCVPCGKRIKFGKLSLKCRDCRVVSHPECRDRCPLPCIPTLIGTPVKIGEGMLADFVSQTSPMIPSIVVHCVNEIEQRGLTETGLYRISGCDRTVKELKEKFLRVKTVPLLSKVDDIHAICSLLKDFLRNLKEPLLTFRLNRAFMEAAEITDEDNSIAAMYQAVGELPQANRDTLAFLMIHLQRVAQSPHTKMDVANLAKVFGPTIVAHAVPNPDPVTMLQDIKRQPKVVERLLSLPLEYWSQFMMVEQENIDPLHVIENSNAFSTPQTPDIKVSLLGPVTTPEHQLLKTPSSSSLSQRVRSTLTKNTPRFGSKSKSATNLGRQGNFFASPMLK

Large T antigen, sequence (P03070 whole entry): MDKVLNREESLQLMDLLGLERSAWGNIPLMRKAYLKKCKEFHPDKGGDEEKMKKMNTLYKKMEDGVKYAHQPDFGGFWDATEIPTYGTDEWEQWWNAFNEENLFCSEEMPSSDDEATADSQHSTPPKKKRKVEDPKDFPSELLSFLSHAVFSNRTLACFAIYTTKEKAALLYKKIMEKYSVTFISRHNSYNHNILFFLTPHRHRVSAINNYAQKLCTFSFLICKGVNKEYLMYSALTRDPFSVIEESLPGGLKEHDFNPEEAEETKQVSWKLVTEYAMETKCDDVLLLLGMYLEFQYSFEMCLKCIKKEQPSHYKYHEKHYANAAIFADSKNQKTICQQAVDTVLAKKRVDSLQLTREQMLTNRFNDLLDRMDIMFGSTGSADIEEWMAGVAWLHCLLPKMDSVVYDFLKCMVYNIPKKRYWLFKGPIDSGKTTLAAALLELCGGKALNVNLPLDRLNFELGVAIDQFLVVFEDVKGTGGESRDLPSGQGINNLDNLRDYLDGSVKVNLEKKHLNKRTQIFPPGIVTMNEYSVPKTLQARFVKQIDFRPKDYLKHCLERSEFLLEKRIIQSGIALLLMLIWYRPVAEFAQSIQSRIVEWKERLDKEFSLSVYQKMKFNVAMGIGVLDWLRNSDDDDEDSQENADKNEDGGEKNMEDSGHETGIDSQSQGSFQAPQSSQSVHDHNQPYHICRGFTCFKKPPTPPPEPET
Cytochrome P450 2C19, sequence (P33261 whole entry): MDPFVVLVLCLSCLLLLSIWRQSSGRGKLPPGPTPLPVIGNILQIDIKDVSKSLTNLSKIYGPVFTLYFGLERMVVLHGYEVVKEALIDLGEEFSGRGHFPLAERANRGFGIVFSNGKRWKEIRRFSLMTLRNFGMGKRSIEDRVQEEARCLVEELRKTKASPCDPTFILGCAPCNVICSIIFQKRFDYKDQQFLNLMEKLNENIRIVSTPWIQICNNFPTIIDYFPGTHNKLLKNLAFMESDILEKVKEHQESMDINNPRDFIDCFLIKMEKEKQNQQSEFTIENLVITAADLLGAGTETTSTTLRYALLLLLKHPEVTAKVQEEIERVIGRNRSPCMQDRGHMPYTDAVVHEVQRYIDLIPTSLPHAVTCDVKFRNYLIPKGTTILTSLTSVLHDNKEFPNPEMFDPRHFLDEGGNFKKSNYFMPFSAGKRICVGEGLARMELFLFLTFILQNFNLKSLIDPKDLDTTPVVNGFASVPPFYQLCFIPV

## Cc1ccc(NC(=O)CSc2nnc(N)s2)cc1S(=O)(=O)N1CCOCC1
[1]
  EC50: > 300 µM (not active)
[2]
  EC50: > 300 µM (not active)

## COc1ccc(/C=N/NC(=O)c2ccc(N(C)S(=O)(=O)c3ccccc3)cc2)cc1
[1]
  EC50: > 300 µM (not active)
[2]
  EC50: > 300 µM (not active)

## COC(=O)c1cnc(N2CCCN(S(=O)(=O)c3ccc(C(F)(F)F)cc3)CC2)nc1C(F)(F)F
[3]
  EC50: 3.03 µM (active)
[4]
  EC50: > 60 µM (not active)
[5]
  EC50: > 260 µM (inactive)

## COc1ccc(-n2cc(CNCc3cnc4ccccn34)c(-c3cccc(F)c3)n2)cc1
[1]
  EC50: > 300 µM (not active)
[2]
  EC50: > 300 µM (inconclusive)

## Cc1cccc(/C=N/c2sc3c(c2C#N)CCN(Cc2ccccc2)C3)c1O
[6]
  EC50: 15.2 µM (active)
[7]
  EC50: 30.1 µM (active)
H4
  EC50: 20.2 µM (active)

## CN1C(=O)C2(Oc3ccccc3C3CC(c4ccccc4)=NN32)c2ccccc21 (centres undefined)
[6]
  EC50: 11.8 µM (active)
[7]
  EC50: 31.6 µM (active)
H4
  EC50: 14.6 µM (active)

## CC1(OC(=O)c2cccs2)C(=O)C=C2C=C3CCCN3C=C2C1=O (centres undefined)
[1]
  EC50: > 300 µM (not active)
[2]
  EC50: 35.4 µM (active)

## Cc1cccc(NC(=O)c2sc(-c3ccccc3)nc2-c2ccc([N+](=O)[O-])cc2)c1
[8]
  EC50: > 195 µM (not active)
[3]
  EC50: 1.53 µM (active)
[4]
  EC50: > 60 µM (not active)

## COc1cccc(CNc2nc3ccccc3n2C(C)C)c1O
[5]
  EC50: > 260 µM (inactive)

## CCOc1ccccc1/C=N/Nc1ccccc1[N+](=O)[O-]
[6]
  EC50: 0.351 µM (active)
[7]
  EC50: 4.07 µM (active)
H4
  EC50: 62.5 µM (inconclusive)

## O=C(O)C1OC(Oc2cc3oc(-c4ccccc4)cc(=O)c3c(O)c2O)C(O)C(O)C1O (centres undefined)
[1]
  EC50: 27.2 µM (active)
[2]
  EC50: 11.9 µM (active)

## COc1cccc2c(N/N=C/c3ccc(O)c(O)c3)cc(C)nc12
Large T antigen
  IC50: 23.8 µM (active)

## N#CC1=C(N)Oc2c(c(=O)oc3ccccc23)C1c1ccccc1OC(=O)c1cccs1 (centres undefined)
[6]
  EC50: > 120 µM (not active)
[7]
  EC50: > 120 µM (not active)
H4
  EC50: > 120 µM (not active)

## CCOC(=O)c1nnsc1Nc1ccc(C)c(C)c1
[5]
  EC50: 104 µM (active)

## Cc1cc(CNC(=O)c2cccc(OC3CCN(S(=O)(=O)N(C)C)CC3)c2)on1
[6]
  EC50: 8.49 µM (active)
[7]
  EC50: 10.8 µM (active)
H4
  EC50: > 120 µM (not active)

## Cc1cccc(N2C(=O)C3C(c4ccccc4)OC4(C(=O)c5ccccc5C4=O)C3C2=O)c1 (centres undefined)
[6]
  EC50: > 120 µM (not active)
[7]
  EC50: > 120 µM (not active)
H4
  EC50: > 120 µM (not active)

## O=S(=O)(Nc1ccncc1)c1ccc(Cl)cc1
[8]
  EC50: > 195 µM (not active)

## N#Cc1c(-c2ccccc2)c(-c2ccccc2)nn(CC(=O)NNC(=O)Nc2ccccc2)c1=O
[6]
  EC50: > 120 µM (not active)
[7]
  EC50: 15.2 µM (active)
H4
  EC50: > 120 µM (not active)

## CC1(C)CC(=O)c2sc(NC(=O)C3COc4ccccc4O3)nc2C1 (centres undefined)
[6]
  EC50: > 120 µM (not active)
[7]
  EC50: 15.9 µM (active)
H4
  EC50: > 120 µM (not active)

## Cc1ccc(OCCC(=O)N2CCN(c3ccc(O)cc3)CC2)cc1
Large T antigen
  IC50: 11.8 µM (active)

## CCOc1cc(C(c2c(O)nc(SC)nc2O)c2c(O)nc(SC)nc2O)ccc1O
Large T antigen
  IC50: > 100 µM (active)

## Cc1nnc(SCc2ccccc2)n1CC1CCCO1 (centres undefined)
Large T antigen
  IC50: > 100 µM (active)

## Nc1ccccc1C(=O)N/N=C1\C2CN3CCN(C2)CC1(c1ccccc1)C3
[6]
  EC50: > 120 µM (not active)
[7]
  EC50: > 120 µM (not active)
H4
  EC50: 8.13 µM (active)

## N#CCCn1cc(C(=O)Nc2ccc([N+](=O)[O-])cc2)c(-c2ccccc2)n1
[8]
  EC50: > 195 µM (not active)

## O=C(CN(CC1CCCO1)S(=O)(=O)c1ccc(S(=O)(=O)NC2CC2)cc1)Nc1ccccc1 (centres undefined)
[5]
  EC50: > 260 µM (inactive)

## CN1C(=O)NC(c2cccc(O)c2)C(C(=O)c2cccs2)C1(O)C(F)(F)F (centres undefined)
[6]
  EC50: > 120 µM (not active)
[7]
  EC50: > 120 µM (not active)
H4
  EC50: 3.94 µM (active)

## O=[N+]([O-])c1ccc(/C=N/N=C(/Nc2ccccn2)c2ccccn2)cc1
[6]
  EC50: > 60 µM (not active)
[7]
  EC50: > 120 µM (not active)
H4
  EC50: > 120 µM (not active)

## Cc1ccc(C)c(Cn2nnc3c(=O)[nH]c(C4CCN(C(=O)c5cccs5)CC4)nc32)c1
[5]
  EC50: > 260 µM (inactive)

## COCC/N=C1/Sc2nc3c(C)cccc3cc2CN1Cc1ccco1
[9]
  CC50: 39.2 µM (active)
Large T antigen
  IC50: 67.5 µM (active)
Cytochrome P450 2C19
  AC50: 2.51 µM (inconclusive)

## CCOc1ccc2nc(N3CCOCC3)nc(C)c2c1
[6]
  EC50: 32 µM (active)
[7]
  EC50: 0.256 µM (active)

## O=Nc1ccc(NOC(=O)c2ccccc2Br)cc1
Large T antigen
  IC50: 30.1 µM (active)

## Cn1ccc(C(=O)Oc2ccc(C(=O)Nc3ccc(F)cc3F)cc2)n1
[6]
  EC50: > 120 µM (not active)
[7]
  EC50: 16.8 µM (active)
H4
  EC50: > 120 µM (not active)

## CN(C)c1ccc(C(C[N+](=O)[O-])c2c(N)n(C)c(=O)n(C)c2=O)c(F)c1C#N (centres undefined)
[5]
  EC50: > 260 µM (inactive)

## COCCCNC(=S)N/N=C/c1ccc(O)cc1O
Large T antigen
  IC50: 9.14 µM (active)

## CC(=O)Nc1ccc(C2=NN(Cc3nnc(-c4ccccc4)o3)C(=O)SC2)cc1
[5]
  EC50: > 260 µM (inactive)

## Cc1ccc(CCNC(=O)C2CCN(S(=O)(=O)c3ccc4c(c3)NC(=O)CO4)CC2)cc1
[5]
  EC50: > 260 µM (inactive)

## COc1ccc(/C=N/Nc2nc(N3CCCC3)nc(N3CCCC3)n2)cc1O
Large T antigen
  IC50: 10.2 µM (active)
[10]
  IC50: 62.2 µM (active)

## CN(C)c1ccc(N2C(=O)CC(Nc3ccc(N4CCOCC4)cc3)C2=O)cc1 (centres undefined)
Large T antigen
  IC50: 12.9 µM (active)

## O=c1c2sccc2nc(SCc2ccc([N+](=O)[O-])cc2)n1Cc1ccccn1
[9]
  CC50: 20.4 µM (active)
[5]
  EC50: 57.3 µM (active)
